Data from patent publication US20050171182A1, “Methods and compositions for use in the treatment of mutant receptor tyrosine kinase driven cellular proliferative diseases” (priority 2003, published 2005).
Read-outs that look alike come from different tables or passages of the source.

What was measured:
MV4-11 cells = assay: cells; settings: for IC50: read-out: Viability (IC50) MV4-11
Experimental: (§1) Given that mutant Flt3 activates cyclin D/CDK4 signaling, the effect of the CDK4 inhibitor arcyriaflavin on the viability of MV4-11 cells was tested. As a control in this experiment, an inhibitor for cyclin A/CDK2 and cyclin E/CDK2 (purvalanol) as well as an inhibitor for cyclin B/CDK1 (alsterpaullone) was included. […] The inhibitors were also tested against EOL-1 cells, which express the mutant fusion kinase FiplL1-PDGFROα and against K562 and BV173 cells (CML cell lines) and THP-1 and U937 cells (AML cell lines). The dilution range of the inhibitors was from 20 μM to 10 nM.
(§2) Viability of the cell lines was determined by an MTT assay, which is based on the reduction of the tetrazolium salt 3, [4,5-dimethylthiazol-2-yl]-2,5-diphenyltetrazolium bromide (MTT). Mitochondrial enzymes associated with metabolic activity reduce MTT to a formazan dye, which can be measured spectrometrically. Cells undergoing apoptosis show reduced metabolic activity resulting in reduced formation of the formazan dye.
(§3) The bone marrow environment is known to contain a multitude of cytokines. […] The cell lines were incubated with the appropriate inhibitor in the presence and absence of the cytokines GM-CSF and IL-3 (10 ng/mL each).
(§4) To test the role of MEK in the survival of MV4-11 and EOL-1 cells, a viability assay (48 hour incubation) was performed using U0126 (10 μM), an MEK specific inhibitor (see FIG. 5).

THP-1 cells = assay: cells; settings: for effect on viability of THP-1 cells: 48 hours, arcyriaflavin 1 μM, U0126 10 μM, FIGS. 4-6, absence and presence of cytokines; for IC50: read-out: Viability (IC50) THP-1
Experimental: as §1, §2, §3, §4

EOL-1 cells = assay: cells; settings: for effect on viability of EOL-1 cells, presence of cytokines: 1 μM (U0126 10 μM), FIGS. 2, 4, 6, GM-CSF and IL-3 10 ng/mL each; for IC50: read-out: Viability (IC50) EOL-1
Experimental: as §1, §2, §3, §4

U937 cells = assay: MTT viability assay, U937 cells; format: cell-based
Experimental: as §1, §2

K562 cells = assay: MTT viability assay, K562 cells; format: cell-based
Experimental: as §1, §2

BV173 cells = assay: MTT viability assay, BV173 cells; format: cell-based
Experimental: as §1, §2

[1] = exposed to inhibitor for 72 hours, MTT
[2] = exposed to inhibitor for 72 hours
[3] = 48 hours, arcyriaflavin 1 μM, U0126 10 μM, FIGS. 5, 6, absence and presence of cytokines

In the case of O=C1NC(=O)c2c1c1c3ccccc3[nH]c1c1[nH]c3ccccc3c21 [arcyriaflavin, arcyriaflavin A], the “Viability (%) MV4-11 cell line, GM-CSF/IL-3 (10 ng/mL each)” value (MV4-11 cells) is reported as 52%, the “effect on viability of MV4-11 cells, presence of cytokines” value (MV4-11 cells; 48 hours, 1 μM (U0126 10 μM), FIGS. 3, 4, 6, GM-CSF and IL-3 10 ng/mL each) is reported as “much reduced” and the IC50 (MV4-11 cells; [1]) is reported as 500 nM. For the same molecule, the “Viability (%) THP-1 cell line, GM-CSF/IL-3 (10 ng/mL each)” value (THP-1 cells) was 96%, the “effect on viability of THP-1 cells” value (THP-1 cells) was “not affected” and the IC50 (THP-1 cells; [1]) was > 10000 nM. The “Viability (%) EOL-1 cell line, GM-CSF/IL-3 (10 ng/mL each)” value (EOL-1 cells) was 60%, the “effect on viability of EOL-1 cells, presence of cytokines” value (EOL-1 cells; 48 hours) was “much reduced” and the IC50 (EOL-1 cells; [1]) was 200 nM. For the same molecule, the IC50 (U937 cells; [2]) was > 10000 nM, the IC50 (K562 cells; [2]) was > 10000 nM and the IC50 (BV173 cells; [2]) was > 10000 nM.

In the case of CS(=O)(=O)O.Cc1ccc(NC(=O)c2ccc(CN3CCN(C)CC3)cc2)cc1Nc1nccc(-c2cccnc2)n1 [imatinib], the “effect on viability of EOL-1 cells, presence of cytokines” value (EOL-1 cells; 48 hours) is reported as “much less affected” and the “effect on viability of EOL-1 cells, absence of cytokines” value (EOL-1 cells; 48 hours, 1 μM, FIGS. 2, 4, cytokines absent) is reported as “strongly reduce”.

In the case of purvalanol, the IC50 (MV4-11 cells; [1]) is reported as 3000 nM, the IC50 (THP-1 cells; [1]) is reported as > 10000 nM and the IC50 (EOL-1 cells; [1]) is reported as > 10000 nM. The IC50 (U937 cells; [2]) was > 10000 nM, the IC50 (K562 cells; [2]) was > 10000 nM and the IC50 (BV173 cells; [2]) was > 10000 nM.

With N#CC(=C(/N)Sc1ccccc1N)/C(C#N)=C(\N)Sc1ccccc1N [U0126, 1,4-diamino-2,3-dicyano-1,4-bis[2-aminophenylthio]butadiene] the “effect on survival/viability of MV4-11 cells, overall” value (MV4-11 cells; [3]) was “slightly alters”, the viability at 10 µM (MV4-11 cells; Homo sapiens, MV4-11, 48 h, read-out: Viability (%) MV4-11 cell line, Cytokines Absent) was 103% and the “Viability (%) MV4-11 cell line, GM-CSF/IL-3 (10 ng/mL each)” value (MV4-11 cells; human, 48 h, 10 μM) was 90%. For the same molecule, the “effect on viability of THP-1 cells” value (THP-1 cells) was “slightly alters”, the viability at 10 µM (THP-1 cells; Homo sapiens, THP-1, 48 h, read-out: Viability (%) THP-1 cell line, Cytokines Absent) was 79% and the “Viability (%) THP-1 cell line, GM-CSF/IL-3 (10 ng/mL each)” value (THP-1 cells; human, 48 h, 10 μM) was 97%. For the same molecule, the “effect on survival/viability of EOL-1 cells, overall” value (EOL-1 cells; [3]) was “slightly alters”, the viability at 10 µM (EOL-1 cells; Homo sapiens, EOL1, 48 h, read-out: Viability (%) EOL-1 cell line, Cytokines Absent) was 80% and the “Viability (%) EOL-1 cell line, GM-CSF/IL-3 (10 ng/mL each)” value (EOL-1 cells; human, 48 h, 10 μM) was 103%.

For O=C1Cc2c([nH]c3ccc([N+](=O)[O-])cc23)-c2ccccc2N1 [alsterpaullone], the IC50 (MV4-11 cells; Homo sapiens, MV4-11, 72 h) was 1000 nM, the IC50 (THP-1 cells; Homo sapiens, THP-1, 72 h) was 1000 nM and the IC50 (EOL-1 cells; Homo sapiens, EOL1, 72 h) was 1000 nM. The IC50 (U937 cells; Homo sapiens, U-937, exposed to inhibitor for 72 hours) was 600 nM, the IC50 (K562 cells; Homo sapiens, K562, exposed to inhibitor for 72 hours) was > 10000 nM and the IC50 (BV173 cells; Homo sapiens, BV-173, exposed to inhibitor for 72 hours) was 1000 nM.
